Data taken from patent publication US20220016200A1, “PHARMACEUTICAL COMPOSITION FOR THE TREATMENT OF CYSTIC FIBROSIS” (GALENUS G.H. AG, priority 2018, published 2022).

Key:
S. maltophilia 1221783 [1] = experiment: Checkerboard colistin sulphate (CS) plus teicoplanin (TP), MIC/FIC and MBC/FBC; format: cell-based, Stenotrophomonas maltophilia; details: agent alone, CAMHB, 5*10^5 CFU/ml, 24 h
Description: (§1) Checkerboard analysis to determine minimal inhibitory concentration (MIC)/fractional inhibitory concentration (FIC) and minimal bacterial concentration (MBC)/fractional bacterial concentration (FBC) values of colistin sulphate (CS) plus teicoplanin (TP) for 6 Gram-negative strains with a bacterial load 5(1-10)*10^5 CFU/ml in a cation-adjusted Mueller-Hinton broth (CAMHB). • a. Antimicrobial stock solutions were prepared using sterile distilled water • b. CS was added along the ordinate; TP was added along the abscissa to 96 well, flat bottom, polystyrene panels with no treatment. Colistin alone was tested in triplicates. • c. Serial 2-fold dilutions starting with 640 μg/ml CS and 640 μg/ml TP were made; 15 μl volume of the serial dilutions were added for each agent to the appropriate wells; final volume at 30 μl • d. For each agent tested alone an additional 15 μl media was added to the well. 30 μl were added in control wells where none of the agent was tested. The negative control well contains 150 μl media without any additions • e. From an overnight bacterial culture in tryptic soy broth, 100 μL was added to 10 mL of fresh tryptic soy broth. This was then incubated at 37° C. for 1.5 hour at 180 rpm. • f. Bacteria in 120 μl CAMHB were added to each well (end concentration 5(1-10)*10^5 CFU/ml) • g. Plates were incubated at 37° C. in an ambient air incubator for 24 h • h. Turbidity at OD600 is determined with a plate photometer • i. By using a one-time inoculator 3 μl from each well of the 96-well plate were transferred to three blood agar plates. The plates were incubated over night at 37° C. in an ambient air incubator • j. […] Determination of the fractional inhibitory concentration (FIC) index and fractional bactericidal concentration (FBC) index and characterization of antimicrobial interactions was assessed […]
(§2) Interactive categories were calculated from checkerboard analysis using MIC results from testing each agent alone and MIC results from the combination wells adjacent to the wells with growth in them […]

A. guillouiae 1285286 [2] = experiment: as above; format: cell-based, Acinetobacter guillouiae; details: agent alone, CAMHB, 5*10^5 CFU/ml
Description: (§3) Checkerboard analysis to determine minimal inhibitory concentration (MIC)/fractional inhibitory concentration (FIC) and minimal […] (MBC)/fractional […] (FBC) values of colistin sulphate (CS) plus teicoplanin (TP) for 6 Gram-negative strains with a bacterial load 5(1-10)*10^5 CFU/ml in a cation-adjusted Mueller-Hinton broth (CAMHB). • a. Antimicrobial stock solutions were prepared using sterile distilled water • b. CS was added along the ordinate; TP was added along the abscissa to 96 well, flat bottom, polystyrene panels with no treatment. Colistin alone was tested in triplicates. • c. Serial 2-fold dilutions starting with 640 μg/ml CS and 640 μg/ml TP were made; 15 μl volume of the serial dilutions were added for each agent to the appropriate wells; final volume at 30 μl • d. For each agent tested alone an additional 15 μl media was added to the well. 30 μl were added in control wells where none of the agent was tested. The negative control well contains 150 μl media without any additions • e. From an overnight bacterial culture in tryptic soy broth, 100 μL was added to 10 mL of fresh tryptic soy broth. This was then incubated at 37° C. for 1.5 hour at 180 rpm. • f. Bacteria in 120 μl CAMHB were added to each well (end concentration 5(1-10)*10^5 CFU/ml) • g. Plates were incubated at 37° C. in an ambient air incubator for 24 h • h. Turbidity at OD600 is determined with a plate photometer • i. By using a one-time inoculator 3 μl from each well of the 96-well plate were transferred to three blood agar plates. The plates were incubated over night at 37° C. in an ambient air incubator • j. MIC values are defined as lowest concentration which restricts bacterial growth to OD600 ≤0.1 • k. MBC values were determined by visual reading the lowest concentration which inhibits 99.9% of the growth of bacteria in the wells • l. Determination of the fractional inhibitory concentration (FIC) index and fractional bactericidal concentration (FBC) index and characterization of antimicrobial interactions was assessed […]
(§4) FIC calculation was carried out as: (MIC of drug A, tested in combination)/(MIC of drug A, tested alone)+(MIC of drug B, tested in combination)/(MIC of drug B, tested alone). FBC calculation was carried out just as well […]
as §2
b. Indifference; FIC/FBC>0.5 to<4.0 c. Antagonism; FIC/FBC≥4.0 d. A. guillouiae 1285286 (IHMA), colistin resistant

[3] = in vivo; cited from earlier work
A. haemolyticus 1655843 [4] = experiment: Checkerboard colistin sulphate (CS) plus teicoplanin (TP), MIC/FIC and MBC/FBC; format: cell-based, Acinetobacter haemolyticus; details: agent alone, CAMHB, 5*10^5 CFU/ml
Description: as §3, §4, §2
b. Indifference; FIC/FBC>0.5 to<4.0 c. Antagonism; FIC/FBC≥4.0 c. A. haemolyticus 1655843 (IHMA), colistin resistant

S. maltophilia 1237289 [5] = experiment: as above; format: cell-based, Stenotrophomonas maltophilia; details: S. maltophilia 1237289, agent alone, CAMHB, 5*10^5 CFU/ml
Description: as §3, with “Plates were incubated at 37° C. in an ambient air incubator for 24 h • h.” left out
as §4, §2
b. Indifference; FIC/FBC>0.5 to<4.0 c. Antagonism; FIC/FBC≥4.0 f. S. maltophilia 1237289 (IHMA), colistin resistant

A. junii 1397597 [6] = experiment: as above; format: cell-based, Acinetobacter junii; details: agent alone, CAMHB, 5*10^5 CFU/ml
Description: as §1, §2

[7] = tested on: Methicillin-resistant Staphylococcus aureus (MRSA); experiment: Three-step decolonization protocol for MRSA in paediatric patients with cystic fibrosis; format: in vivo; details: patients are to receive a further five-day intravenous treatment to increase the success rate
Description: Methicillin-resistant Staphylococcus aureus (MRSA) is a bacterial pathogen in patients with cystic fibrosis (CF) although its clinical effects can be variable. In a three-step decolonization protocol for MRSA 15 paediatric patients are treated during a long follow-up period where 50% are successfully decolonized following one five-day course of i.v. Colistin and fusidic acid. To increase the success rate the patients are to receive a five-day intravenous teicoplanin treatment to clear MRSA colonization to 90-100%.

A. nosocomialis 1461911 [8] = experiment: Checkerboard colistin sulphate (CS) plus teicoplanin (TP), MIC/FIC and MBC/FBC; format: cell-based, Acinetobacter nosocomialis; details: agent alone, CAMHB, 5*10^5 CFU/ml
Description: as §3, §4, §2
b. Indifference; FIC/FBC>0.5 to<4.0 c. Antagonism; FIC/FBC≥4.0 b. A. nosocomialis 1461911 (IHMA), colistin resistant

S. maltophilia 1237289 [9] = experiment: Checkerboard fusidic acid (FD) and colistin sulfate (CS), MIC/FIC; format: cell-based, Stenotrophomonas maltophilia; details: S. maltophilia 1237289, agent alone, CAMHB, 1*10^6 CFU/ml
Description: (§5) Checkerboard assays between fusidic acid (FD) and colistin sulfate (CS) with a bacterial load 5(1-10)*10^5 CFU/ml in cationic adapted Mueller Hinton broth (CAMHB). • a. Antimicrobial stock solutions were prepared using sterile distilled water; • b. CS was added along the ordinate; FD was added along the abscissa to 96 well, flat bottom, polystyrene panels with no treatment. Colistin alone was tested in triplicates; • c. Serial 2-fold dilutions starting with 640 […] CS and 640 μg/ml FD were made; 15 μl volume of the serial dilutions were added for each agent to the appropriate wells—final volume at 30 μl; • d. For each agent tested alone an additional 15 μl media was added to the well. 30 μl were added in control wells where none of the agent was tested. The negative control well contains 150 μl media without any additions; • e. From an overnight bacterial culture in tryptic soy broth, 100 μL was added to 10 mL of fresh tryptic soy broth. This was then incubated at 37° C. for 1.5 hour at 180 rpm; • f. Bacteria in 120 μl CAMHB were added to each well (end concentration 5(1-10)*10^5 CFU/ml); • g. Plates were incubated at 37° C. in an ambient air incubator for 24 h • h. Turbidity at OD600 is determined with a plate photometer • i. By using a one-time inoculator 3 μl from each well of the 96-well plate were transferred to three blood agar plates. The plates were incubated over night at 37° C. in an ambient air incubator; • j. MIC values are defined as lowest concentration which restricts bacterial growth to OD600≤0.1; • k. MBC values were determined by visual reading the lowest concentration which inhibits 99.9% of the growth of bacteria in the wells; • l. Determination of the fractional inhibitory concentration (FIC) index and fractional bactericidal concentration (FBC) index and characterization of antimicrobial interactions was assessed;
(§6) FIC calculation was carried out as: (MIC of drug A, tested in combination)/(MIC of drug A, tested alone)+(MIC of drug B, tested in combination)/(MIC of drug B, tested alone). FBC calculation was carried out just as well;
(§7) Interactive categories were calculated from checkerboard analysis using MIC results from testing each agent alone and MIC results from the combination wells adjacent to the wells with growth in them.
(§8) Determination of the fractional inhibitory concentration (FIC) index and fractional bactericidal concentration (FBC) index and characterization of antimicrobial interactions was assessed:
(§9) (ii) Indifference; FIC/FBC>0.5 to <4.0
(§10) (iii) Antagonism; FIC/FBC≥4.0
e. Stenotrophomonas maltophilia 1237289 (IHMA), colistin resistant (CS 2/4-4/8-8/8)

A. nosocomialis 1461911 [10] = experiment: Checkerboard fusidic acid (FD) and colistin sulfate (CS), MIC/FIC and MBC/FBC; format: cell-based, Acinetobacter nosocomialis; details: A. nosocomialis 1461911, agent alone, CAMHB, 1*10^6 CFU/ml
Description: as §5, §6, §7, §8, §9, §10
b. Acinetobacter nosocomialis 1461911 (IHMA), colistin resistant (3xCS 4/8)

S. maltophilia 1221783 [11] = experiment: Checkerboard fusidic acid (FD) and colistin sulfate (CS), MIC/FIC; format: cell-based, Stenotrophomonas maltophilia; details: agent alone, CAMHB, 1*10^6 CFU/ml, 24 h
Description: Checkerboard assays between fusidic acid (FD) and colistin sulfate (CS) with a bacterial load 5(1-10)*10^5 CFU/ml in cationic adapted Mueller Hinton broth (CAMHB). • a. Antimicrobial stock solutions were prepared using sterile distilled water; • b. CS was added along the ordinate; FD was added along the abscissa to 96 well, flat bottom, polystyrene panels with no treatment. Colistin alone was tested in triplicates; • c. Serial 2-fold dilutions starting with 640 […] CS and 640 μg/ml FD were made; 15 μl volume of the serial dilutions were added for each agent to the appropriate wells—final volume at 30 μl; • d. For each agent tested alone an additional 15 μl media was added to the well. 30 μl were added in control wells where none of the agent was tested. […] Turbidity at OD600 is determined with a plate photometer • i. […] Determination of the fractional inhibitory concentration (FIC) index and fractional bactericidal concentration (FBC) index and characterization of antimicrobial interactions was assessed; […]
as §7
Determination of the fractional inhibitory concentration (FIC) index and fractional bactericidal concentration (FBC) index and characterization of antimicrobial interactions was assessed: […]

A. haemolyticus 1655843 [12] = experiment: Checkerboard fusidic acid (FD) and colistin sulfate (CS), MIC/FIC and MBC/FBC; format: cell-based, Acinetobacter haemolyticus; details: agent alone, CAMHB, 1*10^6 CFU/ml
Description: as §5, §6, §7, §8, §9, §10
c. Acinetobacter haemolyticus 1655843 (IHMA), colistin resistant (3xCS>16/>16-64/>64)

A. guillouiae 1285286 [13] = experiment: as above; format: cell-based, Acinetobacter guillouiae; details: agent alone, CAMHB, 1*10^6 CFU/ml
Description: as §5, §6, §7, §8, §9, §10
d. Acinetobacter guillouiae 1285286 (IHMA), colistin resistant (2xCS 2/4)

A. junii 1397597 [14] = experiment: as above; format: cell-based, Acinetobacter junii; details: agent alone, CAMHB, 1*10^6 CFU/ml
Description: as §5, §6, §7, §8, §9, §10
a. Acinetobacter junii 1391597 (IHMA), colistin resistant (CS 2/2-2/8)

[15] = after 48 h growth (values in brackets)

Compound: teicoplanin [TP]
- MIC (S. maltophilia 1221783 [1]): >64 mg/L
- MIC (A. guillouiae 1285286 [2]; A. guillouiae 1285286, 24 h): >64 mg/L
- MBC (A. guillouiae 1285286 [2]; A. guillouiae): >64 mg/L
- terminal half-life, mean (±SD) [3]: 157 (±93) h
- terminal half-life, median (range) [3]: 168 (111-278) h
- MIC (A. haemolyticus 1655843 [4]; A. haemolyticus 1655843, 24 h): >64 mg/L
- MBC (A. haemolyticus 1655843 [4]; A. haemolyticus): >64 mg/L
- MIC (S. maltophilia 1237289 [5]; 24 h): >64 mg/L
- MIC (S. maltophilia 1237289 [5]; [15]): (>64) mg/l
- MIC (A. junii 1397597 [6]; A. junii 1397597, 24 h): >64 mg/L
- MBC (A. junii 1397597 [6]; A. junii): >64 mg/L
- clear MRSA colonization to [7]: 90-100%
- MIC (A. nosocomialis 1461911 [8]; A. nosocomialis 1461911, 24 h): >64 mg/L
- MBC (A. nosocomialis 1461911 [8]; A. nosocomialis): >64 mg/L

Compound: CC(=O)O[C@H]1C[C@@]2(C)[C@@H](C[C@@H](O)[C@H]3[C@@]4(C)CC[C@@H](O)[C@@H](C)[C@@H]4CC[C@@]32C)/C1=C(\CCC=C(C)C)C(=O)O [FD, fusidic acid]
- MIC (S. maltophilia 1237289 [9]; 24 h): >64 mg/1l
- MIC (S. maltophilia 1237289 [9]; [15]): (>64) mg/1l
- MIC (A. nosocomialis 1461911 [10]; 24 h): >64 mg/1l
- MBC (A. nosocomialis 1461911 [10]; Acinetobacter nosocomialis): > 64 µg/mL
- MIC (S. maltophilia 1221783 [11]): 64 mg/1l
- MIC (A. haemolyticus 1655843 [12]; A. haemolyticus 1655843, 24 h): 32 mg/1l
- MBC (A. haemolyticus 1655843 [12]; Acinetobacter haemolyticus, 1655843, A. haemolyticus 1655843): 64 µg/mL
- MIC (A. guillouiae 1285286 [13]; A. guillouiae 1285286, 24 h): 16 mg/1l
- MBC (A. guillouiae 1285286 [13]; Acinetobacter guillouiae, 1285286, A. guillouiae, read-out: MBC): > 64 µg/mL
- MIC (A. junii 1397597 [14]; A. junii 1397597, 24 h): 32 mg/1l
- MBC (A. junii 1397597 [14]; Acinetobacter junii, 1397597, A. junii 1397597): 64 µg/mL
